No end group written: not given here.

For the first assay, the system named is Staphylococcus aureus (ATCC 29213). Nature of the assay: Minimum bactericidal concentration (MBC) assay. In kind it is cell-based. Conditions: Tables 11-21, no unit printed. The method, then: (§1) First, each of Pseudomonas aeruginosa (ATCC 27853) and Staphylococcus aureus (ATCC 29213) was cultured in 3% (w/v) TSB (tryptic soy broth) liquid medium at 37° C. and 200 rpm for 4 hours, and then further cultured under the same conditions for 3 hours to a concentration of 5×10^6 CFU/ml. Strain solutions were prepared by diluting each of the further cultured strains with SP (sodium phosphate; 10 mM sodium phosphate, 1% TSB) buffer to a final concentration of 2×10^5 CFU/ml.
(§2) Then, each peptide at varying concentrations (0 μg/ml to 300 μg/ml) was dispensed into each well of a 96-well microplate, and 100 μl (1×10^5 CFU/ml) of each of the prepared strain solutions was added thereto, mixed therewith, and allowed to react with the peptide in an incubator at 37° C. for 1 hour.
(§3) In addition, 30 g/L of TS (tryptic soy) and 15 g/L of agar were dissolved in distilled water and sterilized, and then 25 ml of the solution was poured onto a 100 mm round plate and solidified at room temperature for one day or more, thereby preparing a TS agar plate. 10 μl of each reaction solution of the peptide and the strain was plated on the TS agar plate at a constant size, and incubated in an incubator at 37° C. for 18 hours, and then colony formation on the plate was checked. The minimum bactericidal concentration was defined as the minimum concentration of the peptide at which no colony was formed, and the experimental results are shown in Table 1 below.
In the case of “KT-MQSGGTFGTFM-IG-GIR [5878-d60M, d72A, d75M]”, the MBC Staphylococcus aureus was found to be 280 µg/mL.

Substance KTAMQSGGTFGTFMAIGMGIR [KU-5878-M60A] yielded an MBC Staphylococcus aureus of more than 300 µg/mL.

KTMMASGGTFGTFMAIGMGIR [KU-5878-Q62A]: the MBC Staphylococcus aureus was more than 300 µg/mL.

The substance KTMMKSGGTFGTFMAIGMGIR [KU-5878-Q62K] came in with an MBC Staphylococcus aureus of 80 µg/mL.

“KTMMQ-GGTFGTFMAIGMGIR [Peptide 5878-d63S]” displayed an MBC Staphylococcus aureus of 200 µg/mL.

On to KTMMQAGGTFGTFMAIGMGIR [KU-5878-S63A], for which the MBC Staphylococcus aureus was 300 µg/mL.

As for KTMMQKGGTFGTFMAIGMGIR [KU-5878-S63K], the MBC Staphylococcus aureus came to 50 µg/mL.

The substance KTMMQRGGTFGTFMAIGMGIR [KU-5878-S63R] showed an MBC Staphylococcus aureus of 15 µg/mL.

On to “KTMMQS-GTFGTF-AIGM-IR [5878-d64G, d71M, d76G]”, for which the MBC Staphylococcus aureus stood at 200 µg/mL.

In turn, KTMMQSGGAFGTFMAIGMGIR [KU-5878-T66A] registered an MBC Staphylococcus aureus of more than 300 µg/mL.

In turn, KTMMQSGGKFGTFMAIGMGIR [KU-5878-T66K] returned an MBC Staphylococcus aureus of 60 µg/mL.

As to KTMMQSGGRFGTFMAIGMGIR [KU-5878-T66R], the MBC Staphylococcus aureus is 90 µg/mL.

As to KTMMQSGGSFGTFMAIGMGIR [KU-5878-T66S], the MBC Staphylococcus aureus was more than 300 µg/mL.

As to “KTMMQSGGT-GTFMAIGMGIR [Peptide 5878-d67F]”, the MBC Staphylococcus aureus was 200 µg/mL.

KTMMQSGGTAGTFMAIGMGIR [KU-5878-F67A]: the MBC Staphylococcus aureus is more than 300 µg/mL.

“KTMMQSGGTFG-FMAIGMGIR [Peptide 5878-d69T]” returned an MBC Staphylococcus aureus of 120 µg/mL.

A further assay deals with Pseudomonas aeruginosa (ATCC 27853). In words: Minimum bactericidal concentration (MBC) assay. It is filed as cell-based. The settings on record: Tables 11-21, no unit printed. As for the experimental part:
as §1, §2, §3
The substance “KT-MQSGGTFGTFM-IG-GIR [5878-d60M, d72A, d75M]” had an MBC Pseudomonas aeruginosa of 300 µg/mL.

The substance KTAMQSGGTFGTFMAIGMGIR [KU-5878-M60A] displayed an MBC Pseudomonas aeruginosa of more than 300 µg/mL.

Substance KTMMASGGTFGTFMAIGMGIR [KU-5878-Q62A] showed an MBC Pseudomonas aeruginosa of more than 300 µg/mL.

In turn, KTMMKSGGTFGTFMAIGMGIR [KU-5878-Q62K] gave an MBC Pseudomonas aeruginosa of 90 µg/mL.

“KTMMQ-GGTFGTFMAIGMGIR [Peptide 5878-d63S]”: the MBC Pseudomonas aeruginosa worked out at 200 µg/mL.

KTMMQAGGTFGTFMAIGMGIR [KU-5878-S63A] returned an MBC Pseudomonas aeruginosa of 300 µg/mL.

In the case of KTMMQKGGTFGTFMAIGMGIR [KU-5878-S63K], the MBC Pseudomonas aeruginosa stood at 60 µg/mL.

Substance KTMMQRGGTFGTFMAIGMGIR [KU-5878-S63R] yielded an MBC Pseudomonas aeruginosa of 20 µg/mL.

“KTMMQS-GTFGTF-AIGM-IR [5878-d64G, d71M, d76G]” displayed an MBC Pseudomonas aeruginosa of 200 µg/mL.

KTMMQSGGAFGTFMAIGMGIR [KU-5878-T66A] returned an MBC Pseudomonas aeruginosa of more than 300 µg/mL.

Regarding KTMMQSGGKFGTFMAIGMGIR [KU-5878-T66K], the MBC Pseudomonas aeruginosa worked out at 80 µg/mL.

For the substance KTMMQSGGRFGTFMAIGMGIR [KU-5878-T66R], the MBC Pseudomonas aeruginosa was determined as 80 µg/mL.

For KTMMQSGGSFGTFMAIGMGIR [KU-5878-T66S], the MBC Pseudomonas aeruginosa was more than 300 µg/mL.

“KTMMQSGGT-GTFMAIGMGIR [Peptide 5878-d67F]” came in with an MBC Pseudomonas aeruginosa of 200 µg/mL.

On to KTMMQSGGTAGTFMAIGMGIR [KU-5878-F67A], for which the MBC Pseudomonas aeruginosa is more than 300 µg/mL.

Take “KTMMQSGGTFG-FMAIGMGIR [Peptide 5878-d69T]”: the MBC Pseudomonas aeruginosa came out at 120 µg/mL.

In the next assay the test system is Methicillin-resistant Staphylococcus aureus (MRSA, ATCC 33591). In words: Minimum bactericidal concentration (MBC) assay. In kind it is cell-based. Conditions: Tables 11-21, no unit printed. The method, then:
First, each of Pseudomonas aeruginosa (ATCC 27853) and Staphylococcus aureus (ATCC 29213) was cultured in 3% (w/v) TSB (tryptic soy broth) liquid medium at 37° C. and 200 rpm for 4 hours, and then further cultured under the same conditions for 3 hours to a concentration of 5×10^6 CFU/ml. Strain solutions were prepared by diluting each of the further cultured strains with SP (sodium phosphate; 10 mM sodium phosphate, 1% TSB) buffer to a final concentration of 2×10^5 CFU/ml. […]
In addition, 30 g/L of TS (tryptic soy) and 15 g/L of agar were dissolved in distilled water and sterilized, and then 25 ml of the solution was poured onto a 100 mm round plate and solidified at room temperature for one day or more, thereby preparing a TS agar plate. 10 μl of each reaction solution of the peptide and the strain was plated on the TS agar plate at a constant size, and incubated in an incubator at 37° C. for 18 hours, and then colony formation on the plate was checked.
Specifically, each type of bacteria was cultured in 3% (w/v) TSB (tryptic soy broth) liquid medium at 37° C. and 200 rpm for 4 hours, and then further cultured under the same conditions for 3 hours to a concentration of 5×10^6 CFU/ml. Strain solutions were prepared by diluting each of the further cultured strains with SP buffer to a final concentration of 2×10^5 CFU/ml.
Then, the KU-5878 peptide at varying concentrations (0 μg/ml to 300 μg/ml) was dispensed into each well of a 96-well microplate, and 100 μl (1×10^5 CFU/ml) of each of the prepared strain solutions was added thereto, mixed therewith, and allowed to react with the peptide in an incubator at 37° C. for 1 hour.
In addition, 10 μl of each reaction solution of the peptide and the strain was plated on the TS agar plate at a constant size, and incubated in an incubator at 37° C. for 18 hours, and then colony formation on the plate was checked.
Consider “KT-MQSGGTFGTFM-IG-GIR [5878-d60M, d72A, d75M]”, for which the MBC MRSA was found to be 300 µg/mL.

On to KTAMQSGGTFGTFMAIGMGIR [KU-5878-M60A], for which the MBC MRSA is more than 300 µg/mL.

For KTMMASGGTFGTFMAIGMGIR [KU-5878-Q62A], the MBC MRSA was more than 300 µg/mL.

In turn, KTMMKSGGTFGTFMAIGMGIR [KU-5878-Q62K] displayed an MBC MRSA of 90 µg/mL.

Substance “KTMMQ-GGTFGTFMAIGMGIR [Peptide 5878-d63S]” yielded an MBC MRSA of 200 µg/mL.

Consider KTMMQAGGTFGTFMAIGMGIR [KU-5878-S63A], for which the MBC MRSA was more than 300 µg/mL.

As to KTMMQKGGTFGTFMAIGMGIR [KU-5878-S63K], the MBC MRSA is 50 µg/mL.

As for KTMMQRGGTFGTFMAIGMGIR [KU-5878-S63R], the MBC MRSA was 25 µg/mL.

“KTMMQS-GTFGTF-AIGM-IR [5878-d64G, d71M, d76G]” displayed an MBC MRSA of 200 µg/mL.

Consider KTMMQSGGAFGTFMAIGMGIR [KU-5878-T66A], for which the MBC MRSA is more than 300 µg/mL.

Consider KTMMQSGGKFGTFMAIGMGIR [KU-5878-T66K], for which the MBC MRSA is 80 µg/mL.

With KTMMQSGGRFGTFMAIGMGIR [KU-5878-T66R], the MBC MRSA turned out to be 90 µg/mL.

KTMMQSGGSFGTFMAIGMGIR [KU-5878-T66S]: the MBC MRSA is more than 300 µg/mL.

“KTMMQSGGT-GTFMAIGMGIR [Peptide 5878-d67F]” gave an MBC MRSA of 200 µg/mL.

As for KTMMQSGGTAGTFMAIGMGIR [KU-5878-F67A], the MBC MRSA was more than 300 µg/mL.

Turning to “KTMMQSGGTFG-FMAIGMGIR [Peptide 5878-d69T]”, the MBC MRSA is 140 µg/mL.

In another assay the test system is CRPA. Nature of the assay: Minimum bactericidal concentration (MBC) assay. In kind it is cell-based. Conditions: Tables 11-21, no unit printed.
As for “KT-MQSGGTFGTFM-IG-GIR [5878-d60M, d72A, d75M]”, the MBC CRPA stood at 300 µg/mL.

For KTAMQSGGTFGTFMAIGMGIR [KU-5878-M60A], the MBC CRPA is more than 300 µg/mL.

KTMMASGGTFGTFMAIGMGIR [KU-5878-Q62A] returned an MBC CRPA of more than 300 µg/mL.

Regarding KTMMKSGGTFGTFMAIGMGIR [KU-5878-Q62K], the MBC CRPA was 90 µg/mL.

For the substance “KTMMQ-GGTFGTFMAIGMGIR [Peptide 5878-d63S]”, the MBC CRPA stood at 200 µg/mL.

Substance KTMMQAGGTFGTFMAIGMGIR [KU-5878-S63A] displayed an MBC CRPA of 300 µg/mL.

Regarding KTMMQKGGTFGTFMAIGMGIR [KU-5878-S63K], the MBC CRPA is 50 µg/mL.

For KTMMQRGGTFGTFMAIGMGIR [KU-5878-S63R], the MBC CRPA is 20 µg/mL.

For “KTMMQS-GTFGTF-AIGM-IR [5878-d64G, d71M, d76G]”, the MBC CRPA amounted to 200 µg/mL.

As for KTMMQSGGAFGTFMAIGMGIR [KU-5878-T66A], the MBC CRPA is more than 300 µg/mL.

In the case of KTMMQSGGKFGTFMAIGMGIR [KU-5878-T66K], the MBC CRPA came to 70 µg/mL.

Take KTMMQSGGRFGTFMAIGMGIR [KU-5878-T66R]: the MBC CRPA amounted to 80 µg/mL.

In turn, KTMMQSGGSFGTFMAIGMGIR [KU-5878-T66S] had an MBC CRPA of more than 300 µg/mL.

“KTMMQSGGT-GTFMAIGMGIR [Peptide 5878-d67F]” gave an MBC CRPA of 200 µg/mL.

In turn, KTMMQSGGTAGTFMAIGMGIR [KU-5878-F67A] yielded an MBC CRPA of more than 300 µg/mL.

Consider “KTMMQSGGTFG-FMAIGMGIR [Peptide 5878-d69T]”, for which the MBC CRPA was 140 µg/mL.
